ChEMBL document CHEMBL1201862, “PubChem BioAssay data set” (2004)
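Following 48 hours of exposure in 96-well plates, responses at five concentrations were used to interpolate endpoints linearly. GI50 is the concentration that inhibits growth by half.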 Calls of active or inactive are those of the source. No stated cut-off is given here; in the data, active = GI50 up to about 1.1 µM and inactive = higher.

Assays:
Experiment in all cases: NCI tumour cell line growth inhibition, 48 h
OVCAR-3 = system: OVCAR-3
HT-29 = system: HT-29
MCF7 = system: MCF7
K562 = system: K562
MDA-N = system: MDA-N
OVCAR-5 = system: OVCAR-5
HCC 2998 = system: HCC 2998
EKVX = system: EKVX
TK-10 = system: TK-10
MDA-MB-231 = system: MDA-MB-231
M14 = system: M14
RXF 393 = system: RXF 393
COLO 205 = system: COLO 205
SNB-75 = system: SNB-75
OVCAR-8 = system: OVCAR-8
NCI/ADR-RES = system: NCI/ADR-RES
Hs-578T = system: Hs-578T
RPMI-8226 = system: RPMI-8226
SR = system: SR

SMILES	GI50 (OVCAR-3)	GI50 (HT-29)	GI50 (MCF7)	GI50 (K562)	GI50 (MDA-N)	GI50 (OVCAR-5)	GI50 (HCC 2998)	GI50 (EKVX)	GI50 (TK-10)	GI50 (MDA-MB-231)	GI50 (M14)	GI50 (RXF 393)	GI50 (COLO 205)	GI50 (SNB-75)	GI50 (OVCAR-8)	GI50 (NCI/ADR-RES)	GI50 (Hs-578T)	GI50 (RPMI-8226)	GI50 (SR)
CC(=O)N(CCc1ccccc1)C(C#N)c1ccc(OCCCCCCCCCCOc2ccc(C(C#N)N(CCc3ccccc3)C(C)=O)cc2)cc1 (stereo unspecified)	> 100 µM (inactive)	> 100 µM (inactive)	> 100 µM (inactive)	> 100 µM (inactive)	> 100 µM (inactive)	> 100 µM (inactive)	> 100 µM (inactive)	36.5 µM (inactive)	41.2 µM (inactive)	15.2 µM (inactive)	> 100 µM (inactive)	22.6 µM (inactive)	> 100 µM (inactive)	17.7 µM (inactive)	23 µM (inactive)	24.6 µM (inactive)	17.1 µM (inactive)	–	–
COc1ccc(-n2c(=O)[nH]n(C(C)=O)c2=O)cc1	–	> 100 µM (inactive)	> 100 µM (inactive)	> 100 µM (inactive)	> 100 µM (inactive)	> 100 µM (inactive)	–	> 100 µM (inactive)	> 100 µM (inactive)	> 100 µM (inactive)	> 100 µM (inactive)	> 100 µM (inactive)	> 100 µM (inactive)	> 100 µM (inactive)	> 100 µM (inactive)	> 100 µM (inactive)	> 100 µM (inactive)	> 100 µM (inactive)	> 100 µM (inactive)
COc1ccc(C(NCCNC(c2ccc(OC)c(OC)c2)c2cc3c(cc2O)OCO3)c2cc3c(cc2O)OCO3)cc1OC (stereo unspecified)	2.65 µM (inactive)	2.64 µM (inactive)	1.42 µM (inactive)	1.49 µM (inactive)	1.64 µM (inactive)	4.57 µM (inactive)	–	6.22 µM (inactive)	4.04 µM (inactive)	3.13 µM (inactive)	2.92 µM (inactive)	1.72 µM (inactive)	2.89 µM (inactive)	3.56 µM (inactive)	1.89 µM (inactive)	2.13 µM (inactive)	3.24 µM (inactive)	2 µM (inactive)	0.682 µM (active)
COC(CN(C)C(=O)C(C)NC(=O)c1ccccc1)OC (stereo unspecified)	–	> 100 µM (inactive)	> 100 µM (inactive)	> 100 µM (inactive)	> 100 µM (inactive)	> 100 µM (inactive)	–	> 100 µM (inactive)	> 100 µM (inactive)	> 100 µM (inactive)	> 100 µM (inactive)	> 100 µM (inactive)	> 100 µM (inactive)	> 100 µM (inactive)	> 100 µM (inactive)	> 100 µM (inactive)	> 100 µM (inactive)	> 100 µM (inactive)	> 100 µM (inactive)
COc1ccc(C[C@@H](CO)NC2=C(C#N)CCC2)cc1	36.8 µM (inactive)	33.4 µM (inactive)	26.9 µM (inactive)	33.4 µM (inactive)	28.6 µM (inactive)	71.6 µM (inactive)	19.6 µM (inactive)	35.7 µM (inactive)	63.8 µM (inactive)	15.1 µM (inactive)	41.4 µM (inactive)	48.6 µM (inactive)	43.7 µM (inactive)	22.2 µM (inactive)	64.4 µM (inactive)	28.4 µM (inactive)	20 µM (inactive)	18.1 µM (inactive)	–
Cc1ccc2nc(-n3c(/C=C/c4ccccc4O)nc4ccccc4c3=O)sc2c1	> 100 µM (inactive)	> 100 µM (inactive)	> 100 µM (inactive)	> 100 µM (inactive)	> 100 µM (inactive)	> 100 µM (inactive)	> 100 µM (inactive)	19.8 µM (inactive)	> 100 µM (inactive)	> 100 µM (inactive)	> 100 µM (inactive)	> 100 µM (inactive)	> 100 µM (inactive)	> 100 µM (inactive)	> 100 µM (inactive)	> 100 µM (inactive)	> 100 µM (inactive)	76.4 µM (inactive)	–
COc1ccc(/C=C\c2cc(OC)c(OC)c(OC)c2)cc1OC(=O)CCC(=O)O	< 0.0001 µM (active)	0.774 µM (active)	< 0.01 µM (active)	< 0.0001 µM (active)	< 0.0001 µM (active)	–	–	0.0149 µM (active)	46.6 µM (inactive)	< 0.0001 µM (active)	< 0.0001 µM (active)	–	0.857 µM (active)	43 µM (inactive)	< 0.01 µM (active)	< 0.0001 µM (active)	< 0.01 µM (active)	< 0.0001 µM (active)	< 0.0001 µM (active)
